Assay results taken from publication PMC3720542, “Population pharmacokinetics of mefloquine, piperaquine and artemether-lumefantrine in Cambodian and Tanzanian malaria patients” (Malaria Journal, 2013).
Like-named read-outs stand apart in the source and are kept apart here. Marks after values point to notes of the source that are not given here. Values belong to the molecule of their own block, whether it stands above or below them.

Columns and labels:
[1] = Population pharmacokinetic analysis (NONMEM) of artemether-lumefantrine and metabolites in Tanzanian malaria patients (Kibaoni); format: in vivo, human; conditions: for clearance / Vd: human, plasma, oral; for Vd: read-out: VSS (steady-state volume of distribution), population estimate for a person of 70 kg
Description: Three studies have been conducted, one in Tanzania and two in Cambodia. The study profiles are described in Figure 1. The first study was performed during March to May 2008 at the Kibaoni Health Centre, Kilombero district, Morogoro region, Tanzania. […] Six AM-LF (Coartem®, Novartis Pharma, Switzerland) doses were administered at time 0, 8, […] according to body weight (see Table 1); patients were either admitted for three days or asked to come back to the health facility for each drug administration. Mothers of breastfed patients were encouraged to feed their children and patients admitted were provided with food. Patients who reported that they have not eaten within two hours to prior dose intake were instructed to eat as soon as possible. Patients were seen by the clinical officer on days 0, 1, 2, 3, 7, 14, 28, and 42. A blood sample for pharmacokinetic measurement was taken at baseline (pre-dose on day 0) and on days 1, 2, and 7 at pre-defined random times after the last dosing. At each visit, a filter paper sample and a thin and thick smear were taken, in addition to axillary temperature, respiratory rate and haemoglobin measurements (only on days 0, 28 and 42) as well as evaluation of symptoms (e.g. headache, vomiting, and diarrhea). The exact dose and time of last drug intake, body weight, height, age, sex, food intake and concomitant medications were carefully recorded. If patients suffered from concomitant illnesses they were provided with additional treatment (paracetamol, mebendazole, metronidazole, cloxacillin, amoxicillin). Samples of 2 ml of venous blood were collected on an EDTA Vacutainer and kept on ice for no longer than 6 h after withdrawal and then aliquoted into whole blood, plasma and pellet and immediately stored in liquid nitrogen or a -80°C freezer. […] The laboratory is part of the quality control system of the World-Wide Antimalarial Resistance Network (WWARN). The pharmacokinetic analysis for each drug taken separately was performed using the NONMEM computer program Version 6 (NM-TRAN version II). It uses mixed (fixed and random) effects regression to estimate population means and variances of the pharmacokinetic parameters and to identify factors that influence them. One-, two- and three-compartment pharmacokinetic models with first-order absorption, with and without absorption lag times, were compared. Additional one or two-compartments were used for anti-malarials presenting metabolite concentrations (AM and LF). The final parameters estimated were systemic clearance (CL/F), inter-compartmental clearance (Q/F), central volume of distribution (VC/F), peripheral volume of distribution (VP/F) and absorption rate constant (ka). Since no intravenous drug concentration data were available, these parameters represent apparent values. Where available, metabolite data were included into the model and metabolism rate constant from drug compartment to metabolite compartment (k23) and metabolite clearance (CLmet) were also estimated. Owing to identifiability problems, the volume of distribution of the metabolites (VM) DLF and DHA were assumed to equal LF and AM VC, respectively. […] The observed baseline residual plasma concentrations were fitted by estimating a factor (F0) that provided an estimation of the residual doses from previous treatment. […] Proportional and combined proportional-and-additive error models were compared to describe intra-patient (residual) variability for the mother compound, and if available for its metabolite using Cpij(1 + ε1ij) + ε2ij or Cmij(1 + ε3ij) + ε4ij, where Cpij are the corresponding predicted i^th drug plasma concentration and Cmij are the predicted metabolite concentration for the j^th individual, and ε1ij, ε2ij, ε3ij, ε4ij, are independent normally distributed residual error terms with a mean of zero and a variance of σ^2_1, σ^2_2, σ^2_3, σ^2_4. The covariate analysis was performed using a stepwise insertion/deletion approach. […]

[2] = cited from earlier work
[3] = Population pharmacokinetic analysis (NONMEM) of piperaquine in Cambodian malaria patients (Pramoy, DHA-PPQ); format: in vivo, human
Description: The third study was performed during July to October 2008 at Pramoy Health Centre, Veal Veng district, Pursat province, Cambodia. A total of 287 suspected malaria cases were screened by microscopy, of whom 82 (29%) were infected with P. falciparum and 50 (17%) with P. vivax (no mixed infections). Children younger than six years of age and pregnant or lactating women were excluded. Three doses of DHA-PPQ (Duo-Cotecxin®, Zhejiang Holley Nanhu Pharmaceutical Co., Ltd, China) were given according to age (as per national guidelines) on three consecutive days (see Table 1). Same follow-up and blood sampling as at Phnom Dék were performed.
Samples of 2 ml of venous blood were collected on an EDTA Vacutainer and kept on ice for no longer than 6 h after withdrawal and then aliquoted into whole blood, plasma and pellet and immediately stored in liquid nitrogen or a –80°C freezer. […] The method was validated according to FDA recommendations, including assessment of extraction yield, matrix effect variability, overall process efficiency, standard addition experiments as well as anti-malarials short- and long-term stability in plasma. […] The laboratory is part of the quality control system of the World-Wide Antimalarial Resistance Network (WWARN).
The pharmacokinetic analysis for each drug taken separately was performed using the NONMEM computer program Version 6 (NM-TRAN version II). It uses mixed (fixed and random) effects regression to estimate population means and variances of the pharmacokinetic parameters and to identify factors that influence them.
One-, two- and three-compartment pharmacokinetic models with first-order absorption, with and without absorption lag times, were compared. Additional one or two-compartments were used for anti-malarials presenting metabolite concentrations (AM and LF). The final parameters estimated were systemic clearance (CL/F), inter-compartmental clearance (Q/F), central volume of distribution (VC/F), peripheral volume of distribution (VP/F) and absorption rate constant (ka). Since no intravenous drug concentration data were available, these parameters represent apparent values. Where available, metabolite data were included into the model and metabolism rate constant from drug compartment to metabolite compartment (k23) and metabolite clearance (CLmet) were also estimated. Owing to identifiability problems, the volume of distribution of the metabolites (VM) DLF and DHA were assumed to equal LF and AM VC, respectively. […] The observed baseline residual plasma concentrations were fitted by estimating a factor (F0) that provided an estimation of the residual doses from previous treatment.
Exponential errors following a log-normal distribution were assumed for the description of inter-patient variability of the pharmacokinetic parameters and were of the form: θi=θ×e^ηj where θi is the individual pharmacokinetic parameter value in the j^th individual, θ is the population parameter estimate, and ηj is the random effect value, which is independently and normally distributed with a mean of 0 and variance ω^2. Proportional and combined proportional-and-additive error models were compared to describe intra-patient (residual) variability for the mother compound, and if available for its metabolite using Cpij(1 + ϵ1ij) + ϵ2ij or Cmij(1 + ϵ3ij) + ϵ4ij, where Cpij are the corresponding predicted i^th drug plasma concentration and Cmij are the predicted metabolite concentration for the j^th individual, and ϵ1ij, ϵ2ij, ϵ3ij, ϵ4ij, are independent normally distributed residual error terms with a mean of zero and a variance of σ^2_1, σ^2_2, σ^2_3, σ^2_4.
The covariate analysis was performed using a stepwise insertion/deletion approach. Visual inspection of the correlation between post hoc individual estimates of the pharmacokinetic parameters and the available covariates was first conducted by graphical exploration. […]

[4] = bootstrap evaluation, 200 replicates
[5] = present study, Tanzanian patients, sampling 7 days
[6] = patients, age 7.7 ± 1.4 years, n 13, sampling 28 days
[7] = patients, median age 4.0 (1–10) years, n 50, sampling 72 h
[8] = patients, median age 22 (14–60) years, n 217
[9] = pregnant women, median age 21 (16–35) years, n 21, sampling 10 h
[10] = non-pregnant women, median age 27.5 (18–45) years, n 24, sampling 84 days
[11] = patients, median age 6 (2–10) years, n 236, sampling 42 days
[12] = pregnant women, median age 25 (18–43) years, n 24, sampling 84 days

VC, bootstrap mean of 200 [1, 4]: 133 L/kg
k23, bootstrap mean of 200 [1, 4]: 5.83 h⁻¹
ka, bootstrap mean of 200 [1, 4]: 0.27 h⁻¹
θINH, bootstrap mean of 200 [1, 4]: −0.27
σC (CV%), bootstrap mean of 200 [1, 4]: 73%
decrease in CL in patients exposed to a CYP2C9 or CYP3A4 inhibitor ([1]; concomitant treatment): 70%
IIV (inter-individual variability) of CL ([1]; final model): 44%
IIV (inter-individual variability) of k23 ([1]; final model): 68%
IIV (inter-individual variability) of ka ([1]; final model): 119%
ka (first-order absorption rate constant), population estimate ([1]; final model): 0.27 h⁻¹
σC (CV%), residual error for the central compartment, population estimate ([1]; final model, intra-patient variability): 74%
k23 (metabolism rate constant), population estimate ([1]; final model, parent to metabolite (AM to DHA, LF to DLF)): 5.86 h⁻¹
clearance [1, 5]: 9970 mL/min
Vd [1, 5]: 129 L
Compound: CO[C@H]1O[C@@H]2O[C@@]3(C)CC[C@H]4[C@H](C)CC[C@@H]([C@H]1C)[C@@]24OO3 [Artemether, artemether]
CL, population estimate for a person of 70 kg [2, 6]: 102 L/h
VSS, population estimate for a person of 70 kg [2, 6]: 1263 L
CL, population estimate for a person of 70 kg [2, 7]: 182–700^b L/h
VSS, population estimate for a person of 70 kg [2, 7]: 364 L
CL, population estimate for a person of 70 kg [2, 8]: 252^a L/h
VSS, population estimate for a person of 70 kg [2, 8]: 304^a L
CL, population estimate for a person of 70 kg [2, 9]: 1054^d L/h
VSS, population estimate for a person of 70 kg [2, 9]: 2602^d L

CL, population estimate for a person of 70 kg [1, 5]: 336 L/h
VSS (steady-state volume of distribution), population estimate for a person of 70 kg [1, 5]: 265^f L
Compound: CCCCNCC(O)c1cc(Cl)cc2c1-c1ccc(Cl)cc1/C2=C/c1ccc(Cl)cc1 (centres unmarked) [DLF, desbutyl-lumefantrine]
CL, population estimate for a person of 70 kg [2, 6]: 701 L/h

F0, bootstrap mean of 200 [3, 4]: 125 mg
Q, bootstrap mean of 200 [3, 4]: 126 L/h
VP, bootstrap mean of 200 [3, 4]: 20,053 L
ka, bootstrap mean of 200 [3, 4]: 1.00 h⁻¹
σC, bootstrap mean of 200 ([3]; bootstrap evaluation, 200 replicates, listed as head prints [μmolL^-1]): 41%
IIV (inter-individual variability) of CL ([3]; final model): 45%
IIV (inter-individual variability) of VC ([3]; final model): 65%
IIV (inter-individual variability) of VP ([3]; final model): 50%
ka (first-order absorption rate constant), population estimate ([3]; final model): 0.93 h⁻¹
F0 (residual amount from the previous treatment), population estimate ([3]; final model, baseline): 123 mg
clearance ([3]; human, plasma, oral, present study, 60 patients, sampling 14 days): 1820 mL/min
Vd ([3]; human, plasma, oral, present study, 60 patients, sampling 14 days, read-out: VSS, population estimate for a person of 70 kg): 42800 L
residual dose (F0) as percentage of an initial dose ([3]; initial dose 480–960 mg): 12.8–25.6%
Compound: Clc1ccc2c(N3CCN(CCCN4CCN(c5ccnc6cc(Cl)ccc56)CC4)CC3)ccnc2c1 [Piperaquine, piperaquine]
CL, population estimate for a person of 70 kg [2, 10]: 92 L/h
VSS, population estimate for a person of 70 kg [2, 10]: 58,030 L
CL, population estimate ([2]; patients, age 3–55 years, n 98, sampling 63 days): 98^h L/h
VSS, population estimate ([2]; patients, age 3–55 years, n 98, sampling 63 days, for a patient with a median body weight of 48 kg): 61,180^i L
CL, population estimate for a person of 70 kg [2, 11]: 29 L/h
VSS, population estimate for a person of 70 kg [2, 11]: 14,972 L
CL, population estimate for a person of 70 kg [2, 12]: 90 L/h
VSS, population estimate for a person of 70 kg [2, 12]: 37,030 L

clearance [1, 5]: 6980 mL/min
Vd [1, 5]: 129 L
Compound: C[C@H]1[C@@H](O)O[C@@H]2O[C@@]3(C)CC[C@H]4[C@H](C)CC[C@@H]1[C@@]24OO3 [DHA, dihydroartemisinin]
CL, population estimate for a person of 70 kg [2, 8]: 237^a L/h
CL, population estimate for a person of 70 kg [2, 9]: 564 L/h
